According to ChEMBL document CHEMBL4602715, “Efficacy and Tolerability of Pyrazolo[1,5-a]pyrimidine RET Kinase Inhibitors for the Treatment of Lung Adenocarcinoma” (ACS Med Chem Lett, 2020):
Values after ≈ are worked out from the molar mass of the structure shown. Each block holds one compound with its values, some of them ahead of it. Active and inactive are the calls of the source. The rule behind the calls is not given here.

Legend:
[1] = Drug uptake in tumor of Harlan Foxn1 nude mouse xenografted with rat RIE cells transfected with KIF5B/RET at 3 to 30 mg/kg, po administered bid for 8 days by LC-MS/MS analysis; format: ADME, organism-based, Neoplasm; conditions: in vivo, 192 h
[2] = Drug uptake in plasma of Harlan Foxn1 nude mouse xenografted with rat RIE cells transfected with KIF5B/RET at 3 to 30 mg/kg, po administered bid for 8 days by LC-MS/MS analysis; format: ADME, organism-based; conditions: in vivo, 192 h
[3] = Oral bioavailability in BALB/c mouse at 20 mg/kg measured upto 24 hrs by LC-MS/MS analysis; format: ADME, organism-based; conditions: in vivo
[4] = AUC in BALB/c mouse at 20 mg/kg, po measured upto 24 hrs by LC-MS/MS analysis; format: ADME, organism-based; design: dose 20 mg/kg, time < 24 hr, route oral; conditions: in vivo
[5] = Cmax in BALB/c mouse at 20 mg/kg, po measured upto 24 hrs by LC-MS/MS analysis; format: ADME, organism-based; design: dose 20 mg/kg, route oral; conditions: in vivo
[6] = Half life in BALB/c mouse at 20 mg/kg, po measured upto 24 hrs by LC-MS/MS analysis; format: ADME, organism-based; conditions: in vivo
[7] = AUC in BALB/c mouse at 5 mg/kg, iv measured upto 24 hrs by LC-MS/MS analysis; format: ADME, organism-based; design: dose 5 mg/kg, time < 24 hr, route intravenous; conditions: in vivo
[8] = Cmax in BALB/c mouse at 5 mg/kg, iv measured upto 24 hrs by LC-MS/MS analysis; format: ADME, organism-based; design: dose 5 mg/kg, route intravenous; conditions: in vivo
[9] = Half life in BALB/c mouse at 5 mg/kg, iv measured upto 24 hrs by LC-MS/MS analysis; format: ADME, organism-based; conditions: in vivo
[10] = Clearance in BALB/c mouse at 5 mg/kg, iv measured upto 24 hrs by LC-MS/MS analysis; format: ADME, organism-based; conditions: in vivo
[11] = Volume of distribution at steady state in BALB/c mouse at 5 mg/kg, iv measured upto 24 hrs by LC-MS/MS analysis; format: ADME, organism-based; conditions: in vivo, read-out: Vdss
LC-2-ad = experiment: Cytotoxicity against human LC2/ad cells assessed as reduction in cell viability incubated for 6 days by CellTiter Glo assay; format: cell-based; conditions: 144 h
[12] = Ratio of AUC in BALB/c mouse brain to plasma at 20 mg/kg, po measured upto 24 hrs by LC-MS/MS analysis; format: ADME, organism-based; conditions: brain and plasma
[13] = Ratio of Cmax in BALB/c mouse brain to plasma at 20 mg/kg, po measured upto 24 hrs by LC-MS/MS analysis; format: ADME, organism-based; conditions: brain and plasma
[14] = molecular target: T1, Voltage-gated inwardly rectifying potassium channel KCNH2 (Homo sapiens, UniProt Q12809); experiment: Displacement of [3H]-dofetilide from human ERG expressed in CHO cells incubated for 90 mins by microbeta scintillation counting method; format: cell-based
[15] = molecular target: T1, Voltage-gated inwardly rectifying potassium channel KCNH2; experiment: Inhibition of human ERG expressed in human embryonic kidney cells by manual patch clamp assay; format: cell-based; conditions: read-out: IC50
Rattus norvegicus [16] = experiment: Antitumor activity against rat RIE cells transfected with KIF5B/RET xenografted in Harlan Foxn1 nude mouse assessed as tumor regression at 30 mg/kg, po administered bid for 8 days; format: functional, organism-based
Rattus norvegicus [17] = experiment: Antitumor activity against rat RIE cells transfected with KIF5B/RET xenografted in Harlan Foxn1 nude mouse assessed as tumor stasis at 10 mg/kg, po administered bid for 8 days; format: functional, organism-based
Rattus norvegicus [18] = experiment: Antitumor activity against rat RIE cells transfected with KIF5B/RET xenografted in Harlan Foxn1 nude mouse assessed as inhibition of tumor growth at 3 mg/kg, po administered bid for 8 days; format: functional, organism-based
Mus musculus [19] = experiment: In vivo inhibition of KIF5B/RET transfected in rat RIE cells xenografted in Harlan Foxn1 nude mouse assessed as reduction in RET phosphorylation at 30 mg/kg, po administered bid for 8 days and measured on day 8 after 5 hrs of dosing by Western blot analysis; format: functional, organism-based
Mus musculus [20] = experiment: In vivo inhibition of KIF5B/RET transfected in rat RIE cells xenografted in Harlan Foxn1 nude mouse assessed as reduction in RET phosphorylation at 30 mg/kg, po administered bid for 8 days and measured on day 8 after 24 hrs of dosing by Western blot analysis; format: functional, organism-based
[21] = Toxicity in Harlan Foxn1 nude mouse xenografted with rat RIE cells transfected with KIF5B/RET assessed as adverse events at 3 to 30 mg/kg, po administered bid for 8 days; format: organism-based; conditions: in vivo, 192 h
BaF3 = experiment: Cytotoxicity against mouse BA/F3 cells assessed as reduction in cell viability incubated for 48 hrs by brightglo-luciferase reporter gene assay; format: cell-based; conditions: BaF3, 48 h
Bcr/Abl fusion protein = Bcr/Abl fusion protein (Homo sapiens, UniProt P00519); experiment: Inhibition of BCR/ABL (unknown origin) transfected in mouse Ba/F3 cells assessed as reduction in cell viability incubated for 48 hrs by brightglo-luciferase reporter gene assay; format: cell-based, BaF3
[22] = Aqueous solubility of compound at pH 6.8 incubated for 24 hrs by HPLC/UV analysis; format: physicochemical
[23] = Clearance in BALB/c mouse at 2 mg/kg, iv measured upto 24 hrs by LC-MS/MS analysis; format: ADME, organism-based; conditions: in vivo
[24] = Volume of distribution at steady state in BALB/c mouse at 2 mg/kg, iv measured upto 24 hrs by LC-MS/MS analysis; format: ADME, organism-based; conditions: in vivo, read-out: Vdss
[25] = Half life in BALB/c mouse at 2 mg/kg, iv measured upto 24 hrs by LC-MS/MS analysis; format: ADME, organism-based; conditions: in vivo
[26] = AUC in BALB/c mouse at 2 mg/kg, iv measured upto 24 hrs by LC-MS/MS analysis; format: ADME, organism-based; design: dose 2 mg/kg, time < 24 hr, route intravenous; conditions: in vivo
[27] = Cmax in BALB/c mouse at 2 mg/kg, iv measured upto 24 hrs by LC-MS/MS analysis; format: ADME, organism-based; design: dose 2 mg/kg, route intravenous; conditions: in vivo
[28] = Half life in BALB/c mouse at 10 mg/kg, po measured upto 24 hrs by LC-MS/MS analysis; format: ADME, organism-based; conditions: in vivo
[29] = AUC in BALB/c mouse at 10 mg/kg, po measured upto 24 hrs by LC-MS/MS analysis; format: ADME, organism-based; design: dose 10 mg/kg, time < 24 hr, route oral; conditions: in vivo
[30] = Cmax in BALB/c mouse at 10 mg/kg, po measured upto 24 hrs by LC-MS/MS analysis; format: ADME, organism-based; design: dose 10 mg/kg, route oral; conditions: in vivo
[31] = Oral bioavailability in BALB/c mouse at 10 mg/kg measured upto 24 hrs by LC-MS/MS analysis; format: ADME, organism-based; conditions: in vivo

T1 sequence (Q12809 whole entry): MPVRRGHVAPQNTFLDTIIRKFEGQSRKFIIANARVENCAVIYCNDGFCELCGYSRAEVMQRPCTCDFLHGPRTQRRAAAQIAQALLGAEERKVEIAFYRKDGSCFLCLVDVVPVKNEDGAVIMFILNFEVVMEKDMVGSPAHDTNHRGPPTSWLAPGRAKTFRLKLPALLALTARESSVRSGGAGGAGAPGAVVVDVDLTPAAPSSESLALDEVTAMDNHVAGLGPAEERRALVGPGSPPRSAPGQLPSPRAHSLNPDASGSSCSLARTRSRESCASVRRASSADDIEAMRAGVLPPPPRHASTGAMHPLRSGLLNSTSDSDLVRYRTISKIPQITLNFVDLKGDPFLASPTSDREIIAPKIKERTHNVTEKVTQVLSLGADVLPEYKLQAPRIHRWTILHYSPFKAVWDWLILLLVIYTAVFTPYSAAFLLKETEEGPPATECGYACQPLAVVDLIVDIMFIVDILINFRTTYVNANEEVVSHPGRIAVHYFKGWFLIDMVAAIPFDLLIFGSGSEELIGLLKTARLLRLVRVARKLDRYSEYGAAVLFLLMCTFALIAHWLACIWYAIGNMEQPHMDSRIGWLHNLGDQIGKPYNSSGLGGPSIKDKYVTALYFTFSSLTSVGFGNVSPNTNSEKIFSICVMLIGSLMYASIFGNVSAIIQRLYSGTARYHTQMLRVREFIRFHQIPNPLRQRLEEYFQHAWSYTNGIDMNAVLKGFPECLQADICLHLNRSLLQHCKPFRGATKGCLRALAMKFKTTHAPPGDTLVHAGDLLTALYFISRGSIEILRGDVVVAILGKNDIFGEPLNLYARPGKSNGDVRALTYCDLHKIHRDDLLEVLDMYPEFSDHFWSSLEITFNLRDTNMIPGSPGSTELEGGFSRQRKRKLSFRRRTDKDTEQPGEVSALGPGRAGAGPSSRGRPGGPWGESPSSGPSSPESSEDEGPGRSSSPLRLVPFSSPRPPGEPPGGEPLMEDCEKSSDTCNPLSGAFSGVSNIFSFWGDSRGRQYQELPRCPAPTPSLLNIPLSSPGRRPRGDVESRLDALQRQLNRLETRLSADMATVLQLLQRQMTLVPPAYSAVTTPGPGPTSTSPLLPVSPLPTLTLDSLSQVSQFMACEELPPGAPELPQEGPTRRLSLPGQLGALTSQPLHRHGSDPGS
Bcr/Abl fusion protein, sequence (P00519 whole entry, the tested form may be a part): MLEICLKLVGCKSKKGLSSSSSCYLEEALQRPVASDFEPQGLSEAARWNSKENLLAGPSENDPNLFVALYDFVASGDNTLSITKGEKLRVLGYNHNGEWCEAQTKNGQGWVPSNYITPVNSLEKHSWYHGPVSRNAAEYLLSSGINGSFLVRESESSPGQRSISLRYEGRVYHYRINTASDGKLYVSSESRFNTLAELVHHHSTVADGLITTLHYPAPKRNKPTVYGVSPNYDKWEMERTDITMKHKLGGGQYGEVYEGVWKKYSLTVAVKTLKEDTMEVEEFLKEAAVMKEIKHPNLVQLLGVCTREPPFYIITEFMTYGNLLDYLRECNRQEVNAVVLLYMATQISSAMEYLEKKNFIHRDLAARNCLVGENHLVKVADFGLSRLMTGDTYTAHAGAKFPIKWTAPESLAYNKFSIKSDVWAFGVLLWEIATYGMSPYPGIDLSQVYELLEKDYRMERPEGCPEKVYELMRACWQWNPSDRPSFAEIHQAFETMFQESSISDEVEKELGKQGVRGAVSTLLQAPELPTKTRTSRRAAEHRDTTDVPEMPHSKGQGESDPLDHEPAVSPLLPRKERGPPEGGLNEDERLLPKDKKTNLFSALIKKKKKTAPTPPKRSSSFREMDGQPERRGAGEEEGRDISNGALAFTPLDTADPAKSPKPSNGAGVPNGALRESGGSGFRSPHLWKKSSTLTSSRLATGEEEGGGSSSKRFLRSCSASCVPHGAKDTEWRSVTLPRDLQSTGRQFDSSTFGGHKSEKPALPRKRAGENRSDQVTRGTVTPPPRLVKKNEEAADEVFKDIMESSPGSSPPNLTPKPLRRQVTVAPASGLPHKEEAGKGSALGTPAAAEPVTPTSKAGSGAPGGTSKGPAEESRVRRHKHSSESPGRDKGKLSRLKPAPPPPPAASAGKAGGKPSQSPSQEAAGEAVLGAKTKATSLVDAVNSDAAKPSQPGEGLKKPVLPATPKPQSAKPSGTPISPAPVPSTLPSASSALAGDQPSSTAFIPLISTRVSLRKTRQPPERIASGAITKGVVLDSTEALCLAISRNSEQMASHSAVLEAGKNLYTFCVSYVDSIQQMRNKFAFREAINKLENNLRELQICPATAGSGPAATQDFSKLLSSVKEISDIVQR
Bcr/Abl fusion protein, sequence (P11274 whole entry, further chain, the tested form may be a part): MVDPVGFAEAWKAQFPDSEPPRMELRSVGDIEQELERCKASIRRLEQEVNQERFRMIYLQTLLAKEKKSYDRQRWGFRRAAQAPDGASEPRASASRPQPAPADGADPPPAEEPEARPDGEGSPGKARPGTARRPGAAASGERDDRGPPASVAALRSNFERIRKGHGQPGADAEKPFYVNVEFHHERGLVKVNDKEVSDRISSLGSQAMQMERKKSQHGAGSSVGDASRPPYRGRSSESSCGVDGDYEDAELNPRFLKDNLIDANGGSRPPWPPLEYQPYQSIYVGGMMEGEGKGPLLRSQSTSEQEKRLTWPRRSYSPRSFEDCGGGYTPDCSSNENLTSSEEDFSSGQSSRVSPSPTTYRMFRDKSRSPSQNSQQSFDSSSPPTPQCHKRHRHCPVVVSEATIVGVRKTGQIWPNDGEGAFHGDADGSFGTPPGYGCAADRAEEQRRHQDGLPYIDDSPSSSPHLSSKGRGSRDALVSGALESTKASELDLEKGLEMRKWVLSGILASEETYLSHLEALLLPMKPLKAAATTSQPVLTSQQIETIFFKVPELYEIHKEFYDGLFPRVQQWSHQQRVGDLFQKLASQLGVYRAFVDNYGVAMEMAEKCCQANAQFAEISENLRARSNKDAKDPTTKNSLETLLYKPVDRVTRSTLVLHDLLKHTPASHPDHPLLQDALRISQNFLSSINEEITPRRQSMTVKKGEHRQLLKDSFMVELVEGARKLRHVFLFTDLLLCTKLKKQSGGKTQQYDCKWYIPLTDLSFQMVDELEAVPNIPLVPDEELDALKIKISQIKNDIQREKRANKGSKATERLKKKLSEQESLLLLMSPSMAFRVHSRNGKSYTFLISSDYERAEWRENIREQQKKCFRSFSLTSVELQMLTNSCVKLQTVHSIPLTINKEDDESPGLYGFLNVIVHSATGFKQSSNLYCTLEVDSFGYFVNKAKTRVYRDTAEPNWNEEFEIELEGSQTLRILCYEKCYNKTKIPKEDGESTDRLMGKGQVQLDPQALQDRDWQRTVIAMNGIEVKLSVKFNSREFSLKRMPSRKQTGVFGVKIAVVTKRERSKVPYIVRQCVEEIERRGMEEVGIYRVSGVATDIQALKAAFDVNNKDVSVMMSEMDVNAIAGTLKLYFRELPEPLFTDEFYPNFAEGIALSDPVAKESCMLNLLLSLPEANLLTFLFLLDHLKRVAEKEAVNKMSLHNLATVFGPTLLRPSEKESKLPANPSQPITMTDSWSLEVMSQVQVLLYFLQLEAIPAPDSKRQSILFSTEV

Structure (SMILES): COc1ccc(-c2cnn3c(N)c(-c4nccs4)c(OC4CCN(C)CC4)nc23)cc1OC
IC50 (BaF3): > 11 µM | IC50 (Bcr/Abl fusion protein): > 10 µM

Structure (SMILES): COc1ccc(-c2cnn3c(N)c(-c4ccccc4)c(OC4CCNCC4)nc23)cc1OC
IC50 (LC-2-ad): 2700 nM | solubility at 24 h [22]: 47 µM (≈ 20.9 µg/mL)

Structure (SMILES): COc1ccc(-c2cnn3c(N)c(-c4ccccc4)c(OCCCN(C)C)nc23)cc1OC
IC50 (LC-2-ad): 2800 nM | solubility at 24 h [22]: 88 µM (≈ 39.4 µg/mL)

Further lines, with some results ahead:

Drug uptake [1]: Active | Drug uptake [2]: Active | bioavailability [3]: 64% | AUC at 24 h [4]: 6.8 µM·h | Cmax [5]: 880 nM | half-life [6]: 150 min | AUC at 24 h [7]: 2.6 µM·h | Cmax [8]: 1600 nM | half-life [9]: 108 min | clearance [10]: 54 mL/min/kg | Vd [11]: 7.8 L/kg | Kp at 24 h [12]: 0.15 | Kp at 24 h [13]: 0.13
Structure (SMILES): CN1C(C)(C)CC(Nc2nc3c(-c4ccc(C(=O)N5C[C@@H]6C[C@H]5CO6)cc4)cnn3c(N)c2-c2ccccc2)CC1(C)C
IC50 (LC-2-ad): 3400 nM | IC50 [14]: 4.7 µM | IC50 [15]: 2800 nM | Activity (Rattus norvegicus [16]): Active | Activity (Rattus norvegicus [17]): Active | Activity (Rattus norvegicus [18]): Active | inhibition (Mus musculus [19]): Active | inhibition (Mus musculus [20]): inactive | Activity [21]: Non-Toxic

clearance [23]: 110 mL/min/kg | Vd [24]: 11 L/kg | half-life [25]: 96 min | AUC at 24 h [26]: 0.49 µM·h | Cmax [27]: 450 nM | half-life [28]: 132 min | AUC at 24 h [29]: 0.34 µM·h | Cmax [30]: 100 nM | bioavailability [31]: 14%
Structure (SMILES): CN1C(C)(C)CC(Nc2nc3c(-c4ccc(C(=O)N5CCN(S(C)(=O)=O)CC5)cc4)cnn3c(N)c2-c2ccccc2)CC1(C)C
IC50 (LC-2-ad): 2800 nM

solubility at 24 h [22]: 85 µM (≈ 39 µg/mL)
Structure (SMILES): COc1ccc(-c2cnn3c(N)c(-c4ccccc4)c(NC4CCN(C)CC4)nc23)cc1OC
IC50 (LC-2-ad): 5500 nM
